According to patent publication US20220370416A1, “COMPOUNDS AND METHODS FOR TARGETED DEGRADATION OF KRAS” (Arvinas Operations, Inc., priority 2020, published 2022):

Experiments:
[1] = molecular target: T1, HiBit-KRAS^G12C (Homo sapiens, UniProt P01116, G12C); assay: HiBit degradation assay in MiaPaCa-2 HiBit-KRas^G12C cells; assay type: cell-based; conditions: 24 hours; for Dmax: MIA PaCa-2, MiaPaCa-2 HiBit-KRas^G12C cells, maximum degradation; for DC50: MiaPaCa-2 HiBit-KRas^G12C cells
Outline: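 DC50 and Dmax come from 4-parameter fits of DMSO-normalized HiBit luminescence after 24 hours' exposure at 37° C to 10 μM–20 nM compound in 0.1% or 0.5% DMSO. Cells: MiaPaCa-2 carrying one endogenously HiBit-tagged KRAS^G12C allele; concentrations causing ≥50% […] viability loss (alamar blue) excluded.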

[2] = molecular target: T1, HiBit-KRAS^G12C; assay: HiBit degradation assay in SW1573 HiBit-KRas^G12C cells; assay type: cell-based; set-up: expressed in transfected cells; host or cells: SW1573 (clone E6), modified pcDNA3.1 vector, TK promoter; conditions: 24 hours
Outline: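 HiBit-KRAS G12C degradation was measured after a 24 h compound exposure (titrated 10 μM–20 nM) in engineered SW1573 cells. Lytic HiBit luminescence, expressed relative to DMSO controls, yielded DC50 and Dmax from 4-parameter fits. Concentrations causing ≥50% loss in alamar blue viability were omitted as cytotoxic.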

[3] = 0.1% DMSO, read-out: KRas^G12C-HiBiT (MiaPaCa; 0.1% DMSO) DMax
[4] = 0.5% DMSO, read-out: KRas^G12C-HiBiT (MiaPaCa; 0.5% DMSO) DMax
[5] = SW1573, SW1573 HiBit-KRas^G12C, 0.1% DMSO, read-out: KRas^G12C-HiBit (SW1573; 0.1% DMSO) Dmax**
[6] = SW1573, SW1573 HiBit-KRas^G12C, 0.5% DMSO, read-out: KRas^G12C-HiBiT (SW1573; 0.5% DMSO) Dmax**
[7] = SW1573 HiBit-KRas^G12C, 0.1% DMSO, read-out: KRas^G12C-HIBit (SW1573; 0.1% DMSO) DC50*
[8] = read-out: KRas^G12C-HiBiT (MiaPaCa; 0.5% DMSO) IC50, 0.5% DMSO
[9] = read-out: KRas^G12C-HiBiT (SW1573; 0.5% DMSO) IC50***, SW1573 HiBit-KRas^G12C, 0.5% DMSO

T1 sequence (P01116 1-186 isoform P01116-2 G12C limits assumed): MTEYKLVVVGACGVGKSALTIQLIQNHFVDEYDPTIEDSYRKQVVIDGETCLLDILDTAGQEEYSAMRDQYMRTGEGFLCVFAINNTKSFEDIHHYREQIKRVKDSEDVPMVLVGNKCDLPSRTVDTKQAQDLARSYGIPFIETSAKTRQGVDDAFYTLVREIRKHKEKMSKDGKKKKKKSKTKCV

Structure (SMILES) | Dmax [1, 3] | Dmax [1, 4] | Dmax [2, 5] | Dmax [2, 6] | DC50 [2, 7] | DC50 [1, 8] | DC50 [2, 9] | DC50 ([1]; read-out: KRas^G12C-HiBiT (MiaPaCa; 0.1% DMSO) IC50, 0.1% DMSO) | Dmax ([2]; SW1573, read-out: KRas^G12C-HiBit (SW1573; 0.1% DMSO) Dmax**, SW1573 HiBit-KRas^G12C, 0.1% DMSO)
C=CC(=O)N1CCN(c2nc(O[C@H](C)CN3CCC(OCCOCC(=O)N[C@H](C(=O)N4C[C@H](O)C[C@H]4C(=O)N[C@@H](C)c4ccc(-c5scnc5C)cc4)C(C)(C)C)CC3)nc3c(F)c(-c4cc(O)cc5ccccc45)c(Cl)cc23)CC1 (atropisomer, axis not shown) [Compound 86, (2S,4R)-1-[(2S)-2-{2-[2-({1-[(2R)-2-{[6-chloro-8-fluoro-7-(3-hydroxynaphthalen-1-yl)-4-[4-(prop-2-enoyl)piperazin-1-yl]quinazolin-2-yl]oxy}propyl]piperidin-4-yl}oxy)ethoxy]acetamido}-3,3-dimethylbutanoyl]-4-hydroxy-N-[(1S)-1-[4-(4-methyl-1,3-thiazol-5-yl)phenyl]ethyl]pyrrolidine-2-carboxamide] | 35 to 70% | 35 to 70% | 35 to 70% | 35 to 70% | 100 to 1000 nM |  |  |  | 
C=CC(=O)N1CCN(c2nc(O[C@H](C)CN3CCC(COc4cc([C@@H](C(=O)N5C[C@H](O)C[C@H]5C(=O)N[C@@H](C)c5ccc(-c6scnc6C)cc5)C(C)C)on4)CC3)nc3c(F)c(-c4cc(O)cc5ccccc45)c(Cl)cc23)CC1 [Compound 20, (2S,4R)-1-[(2S)-2-[3-({1-[(2R)-2-{[6-chloro-8-fluoro-7-(3-hydroxynaphthalen-1-yl)-4-[4-(prop-2-enoyl)piperazin-1-yl]quinazolin-2-yl]oxy}propyl]piperidin-4-yl}methoxy)-1,2-oxazol-5-yl]-3-methylbutanoyl]-4-hydroxy-N-[(1S)-1-[4-(4-methyl-1,3-thiazol-5-yl)phenyl]ethyl]pyrrolidine-2-carboxamide] | 35 to 70% | 35 to 70% | 35 to 70% | 35 to 70% | 100 to 1000 nM |  |  |  | 
C=CC(=O)N1C[C@H](C)N(c2nc(OCCN3CCC(COCC(=O)N[C@H](C(=O)N4C[C@H](O)C[C@H]4C(=O)N[C@@H](C)c4ccc(-c5scnc5C)cc4)C(C)(C)C)CC3)nc3c(F)c(-c4cc(O)cc5ccccc45)c(Cl)cc23)C[C@H]1C [Compound 36, (2S,4R)-1-[(2S)-2-[2-({1-[2-({6-chloro-4-[(2S,5R)-2,5-dimethyl-4-(prop-2-enoyl)piperazin-1-yl]-8-fluoro-7-(3-hydroxynaphthalen-1-yl)quinazolin-2-yl}oxy)ethyl]piperidin-4-yl}methoxy)acetamido]-3,3-dimethylbutanoyl]-4-hydroxy-N-[(1S)-1-[4-(4-methyl-1,3-thiazol-5-yl)phenyl]ethyl]pyrrolidine-2-carboxamide] | < 35% | 35 to 70% | 35 to 70% | 35 to 70% | 100 to 1000 nM |  |  |  | 
C=CC(=O)N1CCN(c2nc(OCCN3CC[C@H](COCC(=O)N[C@H](C(=O)N4C[C@H](O)C[C@H]4C(=O)N[C@@H](C)c4ccc(-c5scnc5C)cc4)C(C)(C)C)C3)nc3c(F)c(-c4cc(O)cc5ccccc45)c(Cl)cc23)C[C@@H]1CC#N [Compound 142, (2S,4R)-1-[(2S)-2-(2-{[(3S)-1-[2-({6-chloro-4-[(3S)-3-(cyanomethyl)-4-(prop-2-enoyl)piperazin-1-yl]-8-fluoro-7-(3-hydroxynaphthalen-1-yl)quinazolin-2-yl}oxy)ethyl]pyrrolidin-3-yl]methoxy}acetamido)-3,3-dimethylbutanoyl]-4-hydroxy-N-[(1S)-1-[4-(4-methyl-1,3-thiazol-5-yl)phenyl]ethyl]pyrrolidine-2-carboxamide] |  | 35 to 70% |  | 35 to 70% |  | > 1000 nM | 100 to 1000 nM |  | 
C=CC(=O)N1CCN(c2nc(O[C@H]3CCC[C@@H]3N3CCC(COCC(=O)N[C@H](C(=O)N4C[C@H](O)C[C@H]4C(=O)N[C@@H](C)c4ccc(-c5scnc5C)cc4)C(C)(C)C)CC3)nc3c(F)c(-c4cc(O)cc5ccccc45)c(Cl)cc23)C[C@@H]1CC#N [Compound 127, (2S,4R)-1-[(2S)-2-[2-({1-[(1S,2S)-2-({6-chloro-4-[(3S)-3-(cyanomethyl)-4-(prop-2-enoyl)piperazin-1-yl]-8-fluoro-7-(3-hydroxynaphthalen-1-yl)quinazolin-2-yl}oxy)cyclopentyl]piperidin-4-yl}methoxy)acetamido]-3,3-dimethylbutanoyl]-4-hydroxy-N-[(1S)-1-[4-(4-methyl-1,3-thiazol-5-yl)phenyl]ethyl]pyrrolidine-2-carboxamide] |  | 35 to 70% |  | 35 to 70% |  | 100 to 1000 nM | 100 to 1000 nM |  | 
C=CC(=O)N1CCN(c2nc(O[C@H](C)CN3CCN(CCOC4CCN(CC(=O)N[C@H](C(=O)N5C[C@H](O)C[C@H]5C(=O)N[C@@H](C)c5ccc(-c6scnc6C)cc5)C(C)(C)C)CC4)CC3)nc3c(F)c(-c4cc(O)cc5ccccc45)c(Cl)cc23)CC1 [Compound 55, (2S,4R)-1-[(2S)-2-{2-[4-(2-{4-[(2R)-2-{[6-chloro-8-fluoro-7-(3-hydroxynaphthalen-1-yl)-4-[4-(prop-2-enoyl)piperazin-1-yl]quinazolin-2-yl]oxy}propyl]piperazin-1-yl}ethoxy)piperidin-1-yl]acetamido}-3,3-dimethylbutanoyl]-4-hydroxy-N-[(1S)-1-[4-(4-methyl-1,3-thiazol-5-yl)phenyl]ethyl]pyrrolidine-2-carboxamide] |  |  |  |  | 100 to 1000 nM |  |  | > 1000 nM | < 35%
C=CC(=O)N1CCN(c2nc(OCCN3CCC(F)(COc4cc([C@@H](C(=O)N5C[C@H](O)C[C@H]5C(=O)N[C@@H](C)c5ccc(-c6scnc6C)cc5)C(C)C)on4)CC3)nc3c(F)c(-c4cc(O)cc5ccccc45)c(Cl)cc23)C[C@@H]1CC#N [Compound 134, (2S,4R)-1-[(2S)-2-[3-({1-[2-({6-chloro-4-[(3S)-3-(cyanomethyl)-4-(prop-2-enoyl)piperazin-1-yl]-8-fluoro-7-(3-hydroxynaphthalen-1-yl)quinazolin-2-yl}oxy)ethyl]-4-fluoropiperidin-4-yl}methoxy)-1,2-oxazol-5-yl]-3-methylbutanoyl]-4-hydroxy-N-[(1S)-1-[4-(4-methyl-1,3-thiazol-5-yl)phenyl]ethyl]pyrrolidine-2-carboxamide] |  |  |  |  |  | > 1000 nM | > 1000 nM |  | 
C=CC(=O)N1CCN(c2nc(OCCN3CCC(COCC(=O)N[C@H](C(=O)N4C[C@H](O)C[C@H]4C(=O)N[C@@H](C)c4ccc(-c5scnc5C)cc4)C(C)(C)C)CC3)nc3c(F)c(-c4nc(N)cc(C)c4C(F)(F)F)c(Cl)cc23)C[C@@H]1CC#N [Compound 115, (2S,4R)-1-[(2S)-2-[2-({1-[2-({7-[6-amino-4-methyl-3-(trifluoromethyl)pyridin-2-yl]-6-chloro-4-[(3S)-3-(cyanomethyl)-4-(prop-2-enoyl)piperazin-1-yl]-8-fluoroquinazolin-2-yl}oxy)ethyl]piperidin-4-yl}methoxy)acetamido]-3,3-dimethylbutanoyl]-4-hydroxy-N-[(1S)-1-[4-(4-methyl-1,3-thiazol-5-yl)phenyl]ethyl]pyrrolidine-2-carboxamide] |  | > 70% |  | > 70% |  | 100 to 1000 nM | 100 to 1000 nM |  | 
